1 substance from patent US9000166B2, “Metal complexes” (Merck Patent GmbH, priority 2005, dated 2015) can be followed below.

This data set is described as follows: Solubility in various solvents at T=25° C. The data set is classed as physicochemical. An excerpt:
Excellent solubility of the complex is found in many common organic solvents, even in polar protic solvents, such as ethanol and ethanol/water mixtures. As comparison in accordance with the prior art, the solubility of fac-tris[2-(2-pyridinyl-κN)phenyl-κC]iridium(III) (IrPPy) is indicated.

Take “fac-Tris[2-(2-pyridinyl-κN)-5-(tri-n-butylphosphonium)phenyl)-κC]iridium(III) tribromide [Example 1]”: the Solubility entry is “unlimited” (Acetone); “unlimited” (Chloroform); “unlimited” (DMF); “unlimited” (DMSO); “unlimited” (Dichloromethane); 134.0 mg/mL (Ethanol). Besides, the Solubility (Hexane) was more than 1.0 mg/mL; the Solubility result (NMP) is “unlimited”; the Solubility entry (Toluene) was “unlimited”; the Solubility (Water) was determined as 11.5 mg/mL; the Solubility (Water/ethanol (1:1, v,v)) was found to be 43.0 mg/mL.

Usually Solubility stands for how much of the substance goes into solution per volume. A higher Solubility goes with a readily soluble substance.
